# Laboratory results published in patent US12180255B2, “Compositions and methods for derepressing RE1 silencing transcription factor target genes” (Alcamena Stem Cell Therapeutics, LLC, priority 2019, dated 2024).
# pKd: −log10 of the molar value. Where a SMILES comes first, the peptide text is derived from it. Where no end group is shown, it is not given here. [ ]: non-standard residue; d: D form. ξ: configuration not given here. ξGly(dodecyl) = CCCCCCCCCCCCC(N)C(=O)O
# Tests used:
# [1] = Localization in spinal cord after injection at sciatic nerve defect; conditions: 1 mg injected into site of sciatic nerve defect, 48 hours
# Procedure: FIG. 5. […] A 0.7 cm coronal spinal cord section from the […] region of a Sprague Dawley (SD) male rat showing the surrounding nuclei of the sciatic nerve, harvested 48 hours after 1 mg (1 mg/mL) of peptide was injected into the sight of a mid-thigh sciatic nerve defect injury.
# Dosing and Procedure. […] After 48 hours, the animal was sacrificed and the spinal cord from the L4 to L6 region was sectioned coronally.
# Immunohistochemistry. Hoechst 333429 (Calbiochem) dye was used to visualize the nucleus, and FLAG antibody (Sigma-Aldrich) was used to visualize the RPP. Images were taken with a light microscope.
# [2] = system: iPSCs (neural stem cells (NSC)-NL5); experiment: Neuronal differentiation of iPSC NSC-NL5 (MAP2, TUJ1 normalized to DAPI); format: cell-based, human; conditions: 7 days
# Procedure: FIG. 11. iPSCs (neural stem cells (NSC)-NL5) were dosed with one of the RPP sequences (3 μM) or water control shown below. After 7 days in culture, cells were assessed for neuronal differentiation using the Microtubule Associated Protein 2 (MAP2) neuronal marker (normalized to DAPI). Media and variants were replaced on Day 3. MAP2 levels are relative to control in the bar graph (standard deviation n=4).
# FIG. 12. iPSCs (neural stem cells (NSC)-NL5) were with 1 μM RPP (SEQ ID NO. 9) or water control. After 7 days in culture, cells were assessed for neuronal differentiation using neuronal markers TUJ1 (class III beta-tubulin) and MAP2 (both normalized to DAPI). Media and RPP were replaced on Day 3. (standard deviation, n=6).
# FIG. 13. iPSCs (neural stem cells (NSC)-NL5) were with 1 μM RPP (SEQ ID NO. 13) or water control. After 7 days in culture, cells were assessed for neuronal differentiation using neuronal markers TUJ1 and MAP2 (both normalized to DAPI). Media and RPP were replaced on Day 3. (standard deviation, n=6).
# Approach 2: Induced pluripotent stem cells (neural stem cells (NSC)-NL5) differentiate after 7 Days of RPP dosing (FIG. 11 (SEQ ID NOS: 5-11, 3 μM); FIG. 12 (SEQ ID NO: 9, 1 μM) FIG. 13 (SEQ ID NO: 13 (FIG. 27), 1 μM)) using the following “Neuron to Blank” protocol: • 1. 24 well culture plates (Black Visiplate) were coated with Matrigel ([…] for 30 minutes at 37° C.). • 2. NSCs-NLS (see media below) were plated at 0.5×10^5 per well.
# • 3. After 24 hours (cells should be >70% confluent), the media was changed to neuronal differentiation medium (below) with various concentrations of test peptides or water control added (FIGS. 11, 12, and 13, Table 14). The neuronal differentiation medium, with new test peptides and control, was changed every 2 days for 5 days.
# • 4. On Day 7 cells were fixed 4% formaldehyde in 1×PBS for 30 minutes. • 5. Cells were immunolabeled with mouse anti-TUJ1 (1:1000) and rabbit anti-Map2 (1:500) overnight. Then label with 2nd antibody (anti-mouse488, anti-rabbit568 and DAPi) for 1 hour. • 6. Data was collected on a BioTek plate reader • a. Dapi: Excitation 360/40; Emission 460/20, Gain 35; • b. Alexa 488: Excitation 485/20; Emission 528/20, Gain 50; • c. Alexa 568: Excitation 560/20; Emission 620/10, Gain 75).
# [3] = system: L5 DRGs; experiment: qRT-PCR mRNA expression in ex vivo cultured L5 DRGs; format: cell-based, Sprague Dawley rat; conditions: DRG; 1 μM; 48 h
# Procedure: FIG. 15. […] Error bars =standard error of the mean.
# L5 DRGs were dissected from adult male rats and plated in 12-well plates pre-coated with poly-D-Lysine (PDL) and laminin in a minimal volume of medium (250 ul Neurobasal™-A medium (GIBCO) supplemented with B27 (GIBCO), 50 ng/ml NGF (Sigma-Aldrich) and penicillin streptomycin) to allow attachment to the culture plate. One day after plating, DRGs were incubated with RPP (SEQ. ID NO: 12: 1 μM, 3 μM or 10 μM in culture medium, FIGS. 14 and 16; SEQ ID NOS: 13 and 14: 3 μM, FIG. 15) for 48 h. For RNA expression analysis, DRGs were lysed in 300 μl of Qiazol in a 1.5 ml tube containing Bullet Blender Pink Beads using a Bullet Blender Tissue Homogenizer (NextAdvance). Total RNA was extracted using RNeasy Midi Kit (Qiagen) according to manufacturer's instructions. Purified RNA was quantified with NanoDrop 2000 (ThermoFIsher), and reverse transcription was run using High Capacity cDNA Reverse Transcription Kit (Applied Biosystems) and 2 ng/ul RNA per reaction. For qRT-PCR, 5 ul of cDNA (corresponding to 10 ng of RNA) were mixed with to 10 ul SsoAdvanced™ Universal SYBR® Green Supermix (BioRad) and 1 ul of each primer (final primer concentration 500 nM each). Reactions were run in triplicates in a QuantStudio™ 7 Flex Real-Time PCR system (Applied Biosystems). Amplification data were analyzed using the comparative cycle threshold (ΔΔCt) method and β-actin as calibrator. Primers were as follows: β-actin: F-[…] (SEQ ID NO: 340), R-[…] (SEQ ID NO: 333); KV4.3: F-[…] (SEQ ID NO: 341), R-[…] (SEQ ID NO: 342); KV7.2 F-[…] AG (SEQ ID NO: 343), R-[…] (SEQ ID NO: 344); OPRM1: F-[…] (SEQ ID NO: 345), R-[…] (SEQ ID NO: 346).
# [4] = system: mesenchymal progenitor cells (MPCs); experiment: BDNF and NGF mRNA expression in MPCs; format: cell-based, human; conditions: MPC, 3 μM
# Procedure: FIG. 10. BDNF and NGF mRNA expression (normalized to actin) in mesenchymal progenitor cells (MPCs), from two patients, after a 48 hour incubation with water (Ctrl) or […] RPP (SEQ. ID NO: 9). mRNA levels are shown relative to control (standard deviation, n=2).
# Mesenchymal progenitor cells (MPCs) (FIG. 10) from two patients were plated on 12 well plates and cultured in general medium (GM) (DMEM, 10% FBS, PSF). Lyophilized RPP (SEQ ID NO: 9) was dissolved in water at a concentration of 5 mM (1 mg/34.89, diluted in medium to 3 μM, and then incubated with the cell for 48 hours. The control was water.
# MPCs were cultured as described in Gervasi et al., 2020^76.
# [5] = system: NBFL cells; experiment: KV4.3 mRNA in NBFL cells transfected with plasmid expressing RPP; format: cell-based
# Procedure: FIG. 8. mRNA levels of KV4.3 in NBFL cells 48 h after CTDSP1 inhibition. Cells were transfected with a plasmid expressing RPP (SEQ ID NO: 1) with GFP (+) or a control peptide with GFP (−). 24 hours after transfection, cells were sorted based on fluorescence intensity. Error bars represent standard deviation, n=2.
# Transient Transfections and Cell Culture. NBFL cells were grown as previously described^120. 0.5 M NFBL cells were seeded on a 35 mm dish, incubated at 37° C. overnight, and transfected with 2 μg of REST (SEQ. ID NO: 1)-IRES-GFP cDNA^2 using lipofectamine2000 (Life Technologies), following manufacturer recommendations. After a 48 hour incubation period, cell were sorted by fluorescence activated cell sorting (FACS),
# mRNA extraction and quantification. mRNA was extracted, as described in Example 10, from GFP+ and − cells; mRNA levels of KV4.3 were determined using real-time RT-PCR^116. Gene expression was normalized using β-actin (ACTB) as an internal housekeeping control. The β-actin primers used are the same as Example 10. The KV4.3 primers were: forward: […] (SEQ ID NO: 336) and reverse: […] (SEQ ID NO: 337).
# [6] = target: T1, His-CTDSP1 (Homo sapiens, UniProt Q9GZU7); experiment: Binding affinity of RPP for CTDSP1, Monolith (NanoTemper); conditions: His-CTDSP1 40 nM labelled with RED-tris NTA dye 20 nM
# T1 construct: made in house; host or cells: E. coli 10G (Lucigen), pBAD-HisA
# T1 sequence (Q9GZU7 with tags, fused parts or gaps): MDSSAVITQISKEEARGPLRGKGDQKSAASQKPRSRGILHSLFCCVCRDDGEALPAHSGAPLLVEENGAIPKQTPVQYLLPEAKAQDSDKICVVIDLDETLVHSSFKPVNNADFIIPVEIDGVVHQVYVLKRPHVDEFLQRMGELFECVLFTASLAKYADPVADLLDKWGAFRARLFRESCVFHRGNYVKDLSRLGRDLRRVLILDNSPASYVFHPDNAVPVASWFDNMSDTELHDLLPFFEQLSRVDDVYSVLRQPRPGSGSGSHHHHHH
# Procedure: FIG. 2. Binding affinity of the REST phosphomimetic peptide (RPP) for CTDSP1 was measured using the Monolith (NanoTemper). […] Binding was assessed by fluorescently labelling the His tag on CTDSP1 (40 nM) with RED-tris NTA dye (20 nM) and measuring the change in fluorescents when RPP (up to […]) is bound.
# Expression constructs for His-CTDSPL (Table 2; SEQ ID NO: 162) and GST-RPP (Table 4; SEQ ID NO: 164) were constructed and purified as described in Example 2. The His tag on CTDSP1 (40 nM) was labelled with RED-tris NTA dye (20 nM), with a […] dye to CTDSP1 ratio, and unbound dye was removed by gravity-flow size exclusion. Binding affinity of the linear GST-RPP (Table 4; SEQ ID NO: 165) to His-CTDSP1 (Table 2; SEQ ID NO:163) was determined using Monolith (NanoTemper), following manufacturer recommendations. Results of the binding assay are presented in FIG. 2: The RPP (Table 4; SEQ ID NO: 165) was assessed for binding to His-CTDSP1 at several concentrations ranging from low pM up to 0.5 μM.
molecule,measurement,setting,value
CC(C)C[C@H](NC(=O)[C@H](CC(=O)O)NC(=O)[C@H](CCC(=O)O)NC(=O)[C@@H](NC(=O)[C@H](CCCCN)NC(=O)[C@H](CC(=O)O)NC(=O)[C@H](CC(=O)O)NC(=O)[C@H](CC(=O)O)NC(=O)[C@H](CC(=O)O)NC(=O)[C@H](CCCCN)NC(=O)[C@H](Cc1ccc(O)cc1)NC(=O)[C@H](CC(=O)O)NC(=O)[C@H](CCCCN)NC(=O)[C@H](CCC(N)=O)NC(=O)[C@H](C)NC(=O)[C@@H](N)CS)[C@@H](C)O)C(=O)N[C@@H](CCC(=O)O)C(=O)N1CCC[C@H]1C(=O)N1CCC[C@H]1C(=O)N[C@@H](CCC(=O)O)C(=O)N1CCC[C@H]1C(=O)N1CCC[C@H]1C(=O)N[C@@H](CC(C)C)C(=O)N1CCC[C@H]1C(=O)N[C@@H](CCCCN)C(=O)N[C@@H](CCC(=O)O)C(=O)N[C@@H](CC(N)=O)C(=O)NCC(=O)N[C@@H](CCCNC(=N)N)C(=O)N[C@@H](CCCCN)C(=O)N[C@@H](CCCCN)C(=O)N[C@@H](CCCNC(=N)N)C(=O)N[C@@H](CCCNC(=N)N)C(=O)N[C@@H](CCC(N)=O)C(=O)N[C@@H](CCCNC(=N)N)C(=O)N[C@@H](CCCNC(=N)N)C(=O)N[C@@H](CCCNC(=N)N)C(=O)NCC(=O)O [SEQ ID NO: 4] (H-CAQKDYKDDDDKTEDLEPPEPPLPKENGRKKRRQRRRG-OH; N-terminus and C-terminus assumed),localization in nuclei of sciatic nerve neurons in spinal cord,[1],accumulates in the nuclei of the sciatic nerve in spinal cord
same,localization in nuclei of sciatic nerve neurons in spinal cord,[1]; listed as Linear RPP,accumulates in the nucleus of sciatic nerve tissue
SEQ ID NO: 13: CPP with poly arginine sequence and two 2-aminotetradecanoic acids integrated with the REST RI phosphomimetic ([dR][dR][ξGly(dodecyl)][dR][dR][ξGly(dodecyl)][dR][dR][dR][dR][dR][dK][dP][dL][dP][dP][dE][dP][dP][dE][dL][dD][dE]),"increase of differentiation, MAP2 normalized to DAPI",[2]; 0.1 μM,27%
same,"increase of differentiation, TUJ1 normalized to DAPI",[2]; 0.1 μM,60%
same,"increase of differentiation, MAP2 normalized to DAPI",[2]; 1 μM,2 times
same,"increase of differentiation, TUJ1 normalized to DAPI",[2]; 1 μM,3 times
same,"Increase, Nav1.8 mRNA",[3],6x
rrrrwrrwwrrwrrnekplppeppeldet ([dR][dR][dR][dR][dW][dR][dR][dW][dW][dR][dR][dW][dR][dR][dN][dE][dK][dP][dL][dP][dP][dE][dP][dP][dE][dL][dD][dE][dT]) [SEQ ID NO: 9],"Increase, BDNF mRNA",[4]; 48 h,2x
same,"Increase, NGF mRNA",[4]; 48 h,2.9x
same,increase of BDNF relative to water control,[4]; 48 hours,approximately 2 times
same,increase of NGF relative to water control,[4]; 48 hours,~3 times
"TEDLEPPEPPLPKEN [SEQ ID NO: 1, REST phosphomimetic peptide (RPP)]",increase in KV4.3 mRNA,[5]; NBFL cells transfected with RPP,2 fold
same,"Increase, KV4.3 mRNA","[5]; NBFL, 2 μg (transfected), 48 h",3x
"SEQ ID NO: 165: RPP-GST fusion protein, MCTEDLEPPEPPLPKENC linked to GST (Table 4)",pKd,[6],~9.89
